Experimental data from ChEMBL document CHEMBL1909046, “DrugMatrix in vitro pharmacology data”.

Legend:
[1] = target: Sodium-dependent noradrenaline transporter (Homo sapiens, UniProt P23975); test: DRUGMATRIX: Norepinephrine Transporter radioligand binding (ligand: [125I] RTI-55); format: cell membranes, MDCK, Membrane; details: Not Active = under 50% inhibition at 10 µM
[2] = target: T1, Muscarinic acetylcholine receptor M4 (Homo sapiens, UniProt P08173); format: cell membranes, CHO-K1, Membrane; details: cho-k1; also: in other assays of this panel Not Active means under 50% inhibition at 10 µM
T1 sequence (P08173 whole entry): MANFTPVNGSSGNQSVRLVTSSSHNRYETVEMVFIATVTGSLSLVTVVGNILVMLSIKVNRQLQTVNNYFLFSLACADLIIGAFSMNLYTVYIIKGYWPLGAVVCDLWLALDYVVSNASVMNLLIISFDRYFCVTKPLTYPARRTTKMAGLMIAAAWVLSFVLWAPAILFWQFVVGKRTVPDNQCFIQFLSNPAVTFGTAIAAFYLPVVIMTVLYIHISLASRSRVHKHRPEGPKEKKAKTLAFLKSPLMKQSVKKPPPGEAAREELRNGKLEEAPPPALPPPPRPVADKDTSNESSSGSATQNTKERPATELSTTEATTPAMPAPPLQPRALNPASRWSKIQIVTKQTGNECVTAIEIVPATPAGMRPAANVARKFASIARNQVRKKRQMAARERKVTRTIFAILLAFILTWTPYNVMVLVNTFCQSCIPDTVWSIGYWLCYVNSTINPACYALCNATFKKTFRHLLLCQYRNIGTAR

Cytochrome P450 2C19 = Cytochrome P450 2C19 (Homo sapiens, UniProt P33261); details: bti-tn-5b1-4; also: in other assays of this panel Not Active means under 50% inhibition at 10 µM
Cytochrome P450 2C19, sequence (P33261 whole entry): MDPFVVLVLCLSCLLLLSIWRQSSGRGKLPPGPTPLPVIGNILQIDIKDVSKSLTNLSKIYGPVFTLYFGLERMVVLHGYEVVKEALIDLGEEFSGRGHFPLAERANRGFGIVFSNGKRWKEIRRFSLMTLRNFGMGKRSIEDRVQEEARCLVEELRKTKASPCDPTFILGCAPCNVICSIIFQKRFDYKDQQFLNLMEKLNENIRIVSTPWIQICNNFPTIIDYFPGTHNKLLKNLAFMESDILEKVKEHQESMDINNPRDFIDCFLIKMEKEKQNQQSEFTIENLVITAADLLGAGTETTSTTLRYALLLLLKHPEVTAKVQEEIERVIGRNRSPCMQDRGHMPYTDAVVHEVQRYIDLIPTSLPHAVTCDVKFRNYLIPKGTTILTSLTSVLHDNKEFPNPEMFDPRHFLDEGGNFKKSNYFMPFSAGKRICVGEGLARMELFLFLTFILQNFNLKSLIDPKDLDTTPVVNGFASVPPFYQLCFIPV

[3] = target: T2, Muscarinic acetylcholine receptor M5 (Homo sapiens, UniProt P08912); format: cell membranes, CHO-K1, Membrane; details: cho-k1; also: in other assays of this panel Not Active means under 50% inhibition at 10 µM
T2 sequence (P08912 whole entry): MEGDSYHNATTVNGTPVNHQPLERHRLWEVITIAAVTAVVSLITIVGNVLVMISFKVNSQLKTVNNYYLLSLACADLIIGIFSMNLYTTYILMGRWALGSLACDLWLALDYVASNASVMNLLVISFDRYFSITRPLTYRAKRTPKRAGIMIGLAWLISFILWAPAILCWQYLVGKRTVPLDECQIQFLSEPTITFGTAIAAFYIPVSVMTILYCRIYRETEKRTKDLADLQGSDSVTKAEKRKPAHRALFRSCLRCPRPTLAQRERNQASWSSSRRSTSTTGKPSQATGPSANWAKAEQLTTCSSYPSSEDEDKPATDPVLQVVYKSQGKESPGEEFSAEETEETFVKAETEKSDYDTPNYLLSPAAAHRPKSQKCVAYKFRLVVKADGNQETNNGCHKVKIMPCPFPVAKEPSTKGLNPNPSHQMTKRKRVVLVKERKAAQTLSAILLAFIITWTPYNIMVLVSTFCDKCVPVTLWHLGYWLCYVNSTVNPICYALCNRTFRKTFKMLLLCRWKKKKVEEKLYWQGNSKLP

[4] = target: Beta-2 adrenergic receptor (Homo sapiens, UniProt P07550); test: DRUGMATRIX: Adrenergic beta2 radioligand binding (ligand: [3H] CGP-12177); format: cell membranes, Membrane; details: cho; Not Active = under 50% inhibition at 10 µM
Beta-2 adrenergic receptor, sequence (P07550 whole entry): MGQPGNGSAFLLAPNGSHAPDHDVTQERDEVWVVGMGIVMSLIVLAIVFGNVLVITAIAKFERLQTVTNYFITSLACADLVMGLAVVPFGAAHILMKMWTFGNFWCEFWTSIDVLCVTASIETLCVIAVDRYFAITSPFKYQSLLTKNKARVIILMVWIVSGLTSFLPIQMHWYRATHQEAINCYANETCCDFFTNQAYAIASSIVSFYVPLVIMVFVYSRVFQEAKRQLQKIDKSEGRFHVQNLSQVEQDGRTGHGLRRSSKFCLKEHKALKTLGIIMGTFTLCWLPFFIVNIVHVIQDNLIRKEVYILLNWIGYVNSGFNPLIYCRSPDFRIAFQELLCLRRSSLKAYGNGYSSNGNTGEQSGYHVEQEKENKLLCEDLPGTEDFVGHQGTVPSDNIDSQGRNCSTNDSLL

[5] = target: Platelet-activating factor receptor (Homo sapiens, UniProt P25105); test: biochemical; format: tissue-based; details: platelet; also: in other assays of this panel Not Active means under 50% inhibition at 10 µM
Platelet-activating factor receptor, sequence (P25105 whole entry): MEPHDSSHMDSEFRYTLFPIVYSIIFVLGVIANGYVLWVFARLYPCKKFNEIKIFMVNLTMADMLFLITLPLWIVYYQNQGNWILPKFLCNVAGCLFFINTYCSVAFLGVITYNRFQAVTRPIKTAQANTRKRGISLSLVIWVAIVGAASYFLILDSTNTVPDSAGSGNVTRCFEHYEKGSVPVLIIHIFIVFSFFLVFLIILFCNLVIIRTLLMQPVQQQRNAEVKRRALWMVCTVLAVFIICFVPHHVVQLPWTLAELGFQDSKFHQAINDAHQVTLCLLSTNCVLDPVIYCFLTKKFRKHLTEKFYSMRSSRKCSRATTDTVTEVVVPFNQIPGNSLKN

Interstitial collagenase = target: T3, Interstitial collagenase (Homo sapiens, UniProt P03956); format: tissue-based, Rheumatoid synovial fibroblasts
T3 sequence (P03956 whole entry): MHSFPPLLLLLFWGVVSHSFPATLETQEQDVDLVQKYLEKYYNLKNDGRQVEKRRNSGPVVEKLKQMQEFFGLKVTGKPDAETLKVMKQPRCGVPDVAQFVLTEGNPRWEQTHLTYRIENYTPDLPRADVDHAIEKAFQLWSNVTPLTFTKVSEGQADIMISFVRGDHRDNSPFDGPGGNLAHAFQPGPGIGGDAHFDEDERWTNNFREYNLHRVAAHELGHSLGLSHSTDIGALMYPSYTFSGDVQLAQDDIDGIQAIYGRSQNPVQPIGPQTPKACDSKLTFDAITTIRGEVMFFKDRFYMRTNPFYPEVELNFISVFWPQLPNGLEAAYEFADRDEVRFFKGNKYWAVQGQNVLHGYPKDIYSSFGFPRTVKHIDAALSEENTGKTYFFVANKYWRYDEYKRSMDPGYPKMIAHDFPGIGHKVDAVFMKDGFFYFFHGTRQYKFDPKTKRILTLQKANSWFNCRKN

Melanocortin receptor 5 = Melanocortin receptor 5 (Homo sapiens, UniProt P33032); format: cell membranes, HEK293, Membrane; details: hek293; also: in other assays of this panel Not Active means under 50% inhibition at 10 µM
Melanocortin receptor 5, sequence (P33032 whole entry): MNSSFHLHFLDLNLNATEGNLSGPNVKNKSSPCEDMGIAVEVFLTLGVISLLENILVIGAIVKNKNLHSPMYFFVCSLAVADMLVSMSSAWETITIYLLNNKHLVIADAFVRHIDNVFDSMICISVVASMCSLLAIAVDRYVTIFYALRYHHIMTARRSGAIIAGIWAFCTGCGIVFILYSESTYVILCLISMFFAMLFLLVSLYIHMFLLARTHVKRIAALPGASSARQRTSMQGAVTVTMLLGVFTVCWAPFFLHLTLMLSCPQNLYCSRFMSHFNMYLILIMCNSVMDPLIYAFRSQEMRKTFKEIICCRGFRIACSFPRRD

Melanocortin receptor 4 = Melanocortin receptor 4 (Homo sapiens, UniProt P32245); format: cell membranes, Membrane; details: hek293; also: in other assays of this panel Not Active means under 50% inhibition at 10 µM
Melanocortin receptor 4, sequence (P32245 whole entry): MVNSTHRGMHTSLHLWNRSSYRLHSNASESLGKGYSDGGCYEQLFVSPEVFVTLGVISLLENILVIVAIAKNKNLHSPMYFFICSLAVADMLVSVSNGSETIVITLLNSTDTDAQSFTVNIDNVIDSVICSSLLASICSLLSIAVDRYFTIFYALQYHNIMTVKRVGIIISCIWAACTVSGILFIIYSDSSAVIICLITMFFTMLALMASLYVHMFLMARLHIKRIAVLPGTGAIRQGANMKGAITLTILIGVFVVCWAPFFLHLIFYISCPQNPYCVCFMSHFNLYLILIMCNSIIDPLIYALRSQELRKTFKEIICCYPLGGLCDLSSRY

[6] = target: 5-hydroxytryptamine receptor 1B (Rattus norvegicus, UniProt P28564); format: cell membranes, Wistar, Cerebral cortex, Membrane; also: in other assays of this panel Not Active means under 50% inhibition at 10 µM
5-hydroxytryptamine receptor 1B, sequence (P28564 whole entry): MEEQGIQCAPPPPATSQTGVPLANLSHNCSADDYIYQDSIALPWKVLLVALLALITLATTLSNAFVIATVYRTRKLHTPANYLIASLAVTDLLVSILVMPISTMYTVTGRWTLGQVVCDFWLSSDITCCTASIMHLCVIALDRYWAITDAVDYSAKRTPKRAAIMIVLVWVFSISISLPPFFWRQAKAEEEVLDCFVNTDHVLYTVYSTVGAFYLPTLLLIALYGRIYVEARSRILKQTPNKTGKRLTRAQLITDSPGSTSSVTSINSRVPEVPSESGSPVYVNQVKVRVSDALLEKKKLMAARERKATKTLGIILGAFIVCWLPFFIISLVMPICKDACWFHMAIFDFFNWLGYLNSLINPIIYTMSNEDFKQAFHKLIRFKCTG

[7] = DRUGMATRIX: Interleukin IL-1 radioligand binding (ligand: [125I] interleukin 1beta); format: cell membranes, Membrane; details: nih3t3; Not Active = under 50% inhibition at 10 µM
[8] = DRUGMATRIX: Sodium/nucleoside co-transporter radioligand binding (ligand: nitrobenzylthioinosine); format: cell membranes, Cavia porcellus, Dunkin-Hartley, Cerebral cortex, Membrane; details: Not Active = under 50% inhibition at 10 µM
[9] = target: T4, Neuropeptide Y receptor type 2 (Homo sapiens, UniProt P49146); format: cell membranes, Membrane; details: kan-ts; also: in other assays of this panel Not Active means under 50% inhibition at 10 µM
T4 sequence (P49146 whole entry): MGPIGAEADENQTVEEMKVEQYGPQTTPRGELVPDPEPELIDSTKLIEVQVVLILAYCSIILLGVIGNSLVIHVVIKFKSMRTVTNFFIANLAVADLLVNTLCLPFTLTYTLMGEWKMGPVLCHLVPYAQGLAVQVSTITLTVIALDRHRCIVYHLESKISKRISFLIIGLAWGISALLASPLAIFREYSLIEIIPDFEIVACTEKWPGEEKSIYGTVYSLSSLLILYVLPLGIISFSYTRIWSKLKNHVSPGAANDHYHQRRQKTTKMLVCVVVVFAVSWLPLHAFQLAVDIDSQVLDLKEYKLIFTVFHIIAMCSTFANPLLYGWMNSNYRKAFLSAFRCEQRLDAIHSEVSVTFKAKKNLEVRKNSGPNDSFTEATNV

Sodium-dependent noradrenaline transporter, sequence (P23975 whole entry): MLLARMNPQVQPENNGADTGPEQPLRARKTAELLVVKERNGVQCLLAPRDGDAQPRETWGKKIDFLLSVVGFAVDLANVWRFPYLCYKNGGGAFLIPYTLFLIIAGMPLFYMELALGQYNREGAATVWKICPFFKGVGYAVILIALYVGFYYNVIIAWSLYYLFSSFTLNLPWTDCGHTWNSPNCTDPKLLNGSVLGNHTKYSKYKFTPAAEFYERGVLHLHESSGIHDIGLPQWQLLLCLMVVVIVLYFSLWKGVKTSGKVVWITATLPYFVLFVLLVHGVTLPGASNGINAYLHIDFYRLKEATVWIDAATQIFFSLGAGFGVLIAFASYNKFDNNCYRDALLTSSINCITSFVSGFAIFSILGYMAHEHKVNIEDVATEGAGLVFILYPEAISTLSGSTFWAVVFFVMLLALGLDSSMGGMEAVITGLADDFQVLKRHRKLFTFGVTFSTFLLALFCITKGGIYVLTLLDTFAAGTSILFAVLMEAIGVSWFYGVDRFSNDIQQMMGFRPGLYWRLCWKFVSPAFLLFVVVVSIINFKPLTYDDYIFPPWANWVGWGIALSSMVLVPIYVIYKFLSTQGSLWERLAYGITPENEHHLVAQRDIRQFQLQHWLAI

CC(C)(Oc1ccc(CCNC(=O)c2ccc(Cl)cc2)cc1)C(=O)O [BEZAFIBRATE]
Not Active: IC50 ([1]; mdck) | IC50 [2] | IC50 (Cytochrome P450 2C19) | Ki (Cytochrome P450 2C19) | IC50 [3] | IC50 [4] | IC50 [5] | IC50 (Interstitial collagenase) | IC50 (Melanocortin receptor 5) | IC50 (Melanocortin receptor 4) | IC50 [6] | IC50 [7] | Ki [7] | IC50 [8] | Ki [8] | IC50 [9]

CCCC[C@@H](CC)COC(=O)c1ccccc1C(=O)OC[C@@H](CC)CCCC [BIS(2-ETHYLHEXYL)PHTHALATE]
Not Active: IC50 ([1]; mdck) | IC50 [2] | IC50 (Cytochrome P450 2C19) | Ki (Cytochrome P450 2C19) | IC50 [3] | IC50 [4] | IC50 [5] | IC50 (Interstitial collagenase) | IC50 (Melanocortin receptor 5) | IC50 (Melanocortin receptor 4) | IC50 [6] | IC50 [7] | Ki [7] | IC50 [8] | Ki [8] | IC50 [9]

Oc1c(Cl)cc(Cl)cc1Sc1cc(Cl)cc(Cl)c1O [BITHIONOL]
1.23 µM: Ki ([1]; read-out: Ki)
Not Active: IC50 [2] | IC50 (Cytochrome P450 2C19) | Ki (Cytochrome P450 2C19) | IC50 [3] | IC50 [4] | IC50 [5] | IC50 (Interstitial collagenase) | IC50 (Melanocortin receptor 5) | IC50 (Melanocortin receptor 4) | IC50 [6] | IC50 [7] | Ki [7] | IC50 [8] | Ki [8] | IC50 [9]
1.24 µM: IC50 ([1]; read-out: IC50)

Brc1ccccc1 [BROMOBENZENE]
Not Active: IC50 ([1]; mdck) | IC50 [2] | IC50 (Cytochrome P450 2C19) | Ki (Cytochrome P450 2C19) | IC50 [3] | IC50 [4] | IC50 [5] | IC50 (Interstitial collagenase) | IC50 (Melanocortin receptor 5) | IC50 (Melanocortin receptor 4) | IC50 [6] | IC50 [7] | Ki [7] | IC50 [8] | Ki [8] | IC50 [9]

CC[C@@]1(O)C(=O)OCc2c1cc1n(c2=O)Cc2cc3ccccc3nc2-1 [CAMPTOTHECIN]
Not Active: IC50 ([1]; mdck) | IC50 [2] | IC50 (Cytochrome P450 2C19) | Ki (Cytochrome P450 2C19) | IC50 [3] | IC50 [4] | IC50 [5] | IC50 (Interstitial collagenase) | IC50 (Melanocortin receptor 5) | IC50 (Melanocortin receptor 4) | IC50 [6] | IC50 [7] | Ki [7] | IC50 [8] | Ki [8] | IC50 [9]

O=C1CCc2cc(OCCCCc3nnnn3C3CCCCC3)ccc2N1 [CILOSTAZOL]
Not Active: IC50 ([1]; mdck) | IC50 [2] | IC50 (Cytochrome P450 2C19) | Ki (Cytochrome P450 2C19) | IC50 [3] | IC50 [4] | IC50 [5] | IC50 (Interstitial collagenase) | IC50 (Melanocortin receptor 5) | IC50 (Melanocortin receptor 4) | IC50 [6] | IC50 [7] | Ki [7] | IC50 [8] | Ki [8] | IC50 [9]
